Measured values reported in the supplement of paper PMC11061612.

How the values were obtained:
Experiment in all cases: combination Emax (second highest fraction inhibited in the dose matrix, 72 h); higher = more inhibition; extreme values may be limits of the assay
[1] = system: 8505C (Thyroid Gland Carcinoma)
Procedure, shortened: (§1)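 Bliss excess equals the observed combination effect minus the expected value EA + EB − EA·EB, where EA and EB are the effects of each agent alone. Combination Emax is the second-highest inhibition within the matrix. Inhibition was scaled from CellTiter-Glo 2.0 luminescence, with 0 set by vehicle wells and 1 by blank wells, after 72 hours of two-drug dosing of cells plated in 1536-well plates.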

[2] = system: DAN-G (Pancreatic Carcinoma)
Procedure, shortened: as §1

[3] = system: G-361 (Melanoma)
Procedure, shortened: as §1

[4] = system: KY821 (Acute Myeloid Leukemia)
Procedure, shortened: as §1

[5] = system: PC-3 (Prostate Carcinoma)
Procedure, shortened: as §1

[6] = system: RD (Rhabdomyosarcoma)
Procedure, shortened: as §1

[7] = system: SNU-398 (Hepatocellular Carcinoma)
Procedure, shortened: as §1

[8] = system: SU-DHL-5 (B-Cell Non-Hodgkin's Lymphoma)
Procedure, shortened: as §1

[9] = system: SUP-B15 (B-Lymphoblastic Leukemia)
Procedure, shortened: as §1

[10] = system: COR-L279 (Small Cell Lung Carcinoma)
Procedure, shortened: as §1

[11] = system: CW-2 (Colorectal Carcinoma)
Procedure, shortened: as §1

[12] = system: KU812 (Chronic Myelogenous Leukemia)
Procedure, shortened: as §1

[13] = system: MN-60 (B-Lymphoblastic Leukemia)
Procedure, shortened: as §1

[14] = system: MOG-G-CCM (Low Grade Glioma)
Procedure, shortened: as §1

[15] = system: NCCIT (Other Solid Carcinomas)
Procedure, shortened: as §1

[16] = system: NCI-H3122 (Lung Adenocarcinoma)
Procedure, shortened: as §1

[17] = system: NCI-H520 (Squamous Cell Lung Carcinoma)
Procedure, shortened: as §1

[18] = system: NCI-H526 (Small Cell Lung Carcinoma)
Procedure, shortened: as §1

[19] = system: NCI-H929 (Plasma Cell Myeloma)
Procedure, shortened: as §1

[20] = system: T-T (Esophageal Squamous Cell Carcinoma)
Procedure, shortened: as §1

Row | Compound | combination Emax [1] | combination Emax [2] | combination Emax [3] | combination Emax [4] | combination Emax [5] | combination Emax [6] | combination Emax [7] | combination Emax [8] | combination Emax [9] | combination Emax [10] | combination Emax [11] | combination Emax [12] | combination Emax [13] | combination Emax [14] | combination Emax [15] | combination Emax [16] | combination Emax [17] | combination Emax [18] | combination Emax [19] | combination Emax [20]
1 | COc1nnc2ccc(N3CCC(c4ccc(OCCN5CCN(C)C(=O)[C@H]5C)cc4)CC3)nn12 [AZD5153] + CN(CC[C@H](CSC1=CC=CC=C1)NC2=C(C=C(C=C2)S(=O)(=O)NC(=O)C3=CC=C(C=C3)N4CCC(CC4)[C@H](C5=CC=CC=C5C6=CC=C(C=C6)Cl)O)S(=O)(=O)C(F)(F)F)CCO [AZD4320] (first compound max 1 µM, 7x7, partner max 1 µM) | 0.441 | 0.345 | 0.67 | 1 | 0.347 | 0.939 | 0.451 | 0.994 | 1 | – | – | – | – | – | – | – | – | – | – | –
2 | C=CCn1c(=O)c2cnc(Nc3ccc(N4CCN(C)CC4)cc3)nc2n1-c1cccc(C(C)(C)O)n1 [AZD1775] + C[C@@H]1COCCN1C2=NC(=NC(=C2)C3(CC3)[S@](=N)(=O)C)C4=C5C=CNC5=NC=C4 [AZD6738] (first compound max 1 µM, partner max 10 µM) | – | 0.763 | 0.676 | 1 | 0.498 | 0.655 | 0.563 | 1 | 0.914 | 0.675 | 0.682 | 0.849 | 0.64 | 0.682 | 0.905 | 0.872 | 0.86 | 0.873 | 0.713 | 0.73
3 | CCc1c2c(nc3ccc(O)cc13)-c1cc3c(c(=O)n1C2)COC(=O)[C@]3(O)CC [SN-38] + O=C(c1cc(Cc2n[nH]c(=O)c3ccccc23)ccc1F)N1CCN(C(=O)C2CC2)CC1 [Olaparib] (first compound max 0.3 µM, 7x7, partner max 10 µM) | 0.849 | – | 0.459 | 0.998 | – | – | 0.255 | 1 | – | 1 | 0.604 | 0.756 | 0.858 | 0.49 | 0.274 | 0.932 | 0.834 | 1 | 0.95 | 0.835
